# Measured values taken from PubChem BioAssay (NCI).
#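 1) Cells in 96-well plates. 2) Compound, 48 h, 5 concentrations. 3) Linear interpolation between surrounding doses. 4) Unreached endpoint = highest concentration. Abbreviation: GI50, concentration required for 50% inhibition of growth. The concentration for full growth arrest is given as TGI.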
# Assays:
# Experiment in all cases: NCI tumour cell line growth inhibition, 48 h
# HT29 colon = tested on: HT29 colon
# OVCAR-8 ovarian = tested on: OVCAR-8 ovarian
# A498 renal = tested on: A498 renal
# OVCAR-5 ovarian = tested on: OVCAR-5 ovarian
# NCI/ADR-RES ovarian = tested on: NCI/ADR-RES ovarian
# BT-549 breast = tested on: BT-549 breast
# A549 NSCLC = tested on: A549 NSCLC
# HCT-15 colon = tested on: HCT-15 colon
# NCI-H23 lung = tested on: NCI-H23 lung
# CAKI-1 renal = tested on: CAKI-1 renal
# SNB-19 CNS = tested on: SNB-19 CNS
# SR leukemia = tested on: SR leukemia
# NCI-H226 lung = tested on: NCI-H226 lung
# ACHN renal = tested on: ACHN renal
# SK-OV-3 ovarian = tested on: SK-OV-3 ovarian
# SN12C renal = tested on: SN12C renal
# SK-MEL-5 melanoma = tested on: SK-MEL-5 melanoma
# 786-0 renal = tested on: 786-0 renal
# COLO 205 colon = tested on: COLO 205 colon
# K-562 leukemia = tested on: K-562 leukemia
# SNB-75 CNS = tested on: SNB-75 CNS
# LOX IMVI melanoma = tested on: LOX IMVI melanoma
# T-47D breast = tested on: T-47D breast
# NCI-H460 lung = tested on: NCI-H460 lung
# MOLT-4 leukemia = tested on: MOLT-4 leukemia
# UACC-62 melanoma = tested on: UACC-62 melanoma
# UACC-257 melanoma = tested on: UACC-257 melanoma
# HOP-92 NSCLC = tested on: HOP-92 NSCLC
# SW-620 colon = tested on: SW-620 colon
# MCF7 breast = tested on: MCF7 breast
# RPMI-8226 leukemia = tested on: RPMI-8226 leukemia
# HOP-62 NSCLC = tested on: HOP-62 NSCLC
# TK-10 renal = tested on: TK-10 renal
# DU-145 prostate = tested on: DU-145 prostate
# IGROV1 ovarian = tested on: IGROV1 ovarian
# EKVX NSCLC = tested on: EKVX NSCLC
# MDA-MB-231 breast = tested on: MDA-MB-231 breast
# MALME-3M melanoma = tested on: MALME-3M melanoma
# UO-31 renal = tested on: UO-31 renal
# HL-60(TB) leukemia = tested on: HL-60(TB) leukemia
# MDA-MB-435 = tested on: MDA-MB-435
# MDA-N = tested on: MDA-N
# SK-MEL-28 melanoma = tested on: SK-MEL-28 melanoma
# NCI-H522 lung = tested on: NCI-H522 lung
# HCT-116 colon = tested on: HCT-116 colon
# U251 CNS = tested on: U251 CNS
# PC-3 prostate = tested on: PC-3 prostate
# SF-295 CNS = tested on: SF-295 CNS
# SK-MEL-2 melanoma = tested on: SK-MEL-2 melanoma
# CCRF-CEM leukemia = tested on: CCRF-CEM leukemia
# HCC-2998 colon = tested on: HCC-2998 colon
# HS 578T breast = tested on: HS 578T breast
# SF-268 CNS = tested on: SF-268 CNS
# OVCAR-4 ovarian = tested on: OVCAR-4 ovarian
# OVCAR-3 ovarian = tested on: OVCAR-3 ovarian
# RXF 393 renal = tested on: RXF 393 renal
# M14 melanoma = tested on: M14 melanoma
# KM12 colon = tested on: KM12 colon
# SF-539 CNS = tested on: SF-539 CNS
structure (smiles),measurement,setting,value
CCCCOC(=O)CC(CC(=O)OCCCC)(OC(C)=O)C(=O)OCCCC,GI50,HT29 colon,68.8 µM
same,TGI,HT29 colon,> 200 µM
same,TGI,OVCAR-8 ovarian,> 200 µM
same,TGI,A498 renal,> 200 µM
same,TGI,OVCAR-5 ovarian,> 200 µM
same,GI50,NCI/ADR-RES ovarian,74.2 µM
same,TGI,NCI/ADR-RES ovarian,> 200 µM
same,TGI,BT-549 breast,> 200 µM
same,TGI,A549 NSCLC,> 200 µM
same,TGI,HCT-15 colon,> 200 µM
same,TGI,NCI-H23 lung,> 200 µM
same,TGI,CAKI-1 renal,> 200 µM
same,TGI,SNB-19 CNS,> 200 µM
same,GI50,SR leukemia,32.2 µM
same,TGI,SR leukemia,> 50.7 µM
same,GI50,NCI-H226 lung,55.6 µM
same,TGI,NCI-H226 lung,198 µM
same,TGI,ACHN renal,> 200 µM
same,TGI,SK-OV-3 ovarian,> 200 µM
same,TGI,SN12C renal,> 200 µM
same,GI50,SK-MEL-5 melanoma,28.4 µM
same,TGI,SK-MEL-5 melanoma,> 200 µM
same,TGI,786-0 renal,> 200 µM
same,TGI,COLO 205 colon,> 200 µM
same,GI50,K-562 leukemia,53.2 µM
same,TGI,K-562 leukemia,> 200 µM
same,TGI,SNB-75 CNS,56.4 µM
same,GI50,LOX IMVI melanoma,40.5 µM
same,TGI,LOX IMVI melanoma,> 200 µM
same,GI50,T-47D breast,26.4 µM
same,TGI,T-47D breast,> 200 µM
same,TGI,NCI-H460 lung,> 200 µM
same,GI50,MOLT-4 leukemia,24.8 µM
same,TGI,MOLT-4 leukemia,> 200 µM
same,TGI,UACC-62 melanoma,> 200 µM
same,TGI,UACC-257 melanoma,> 200 µM
same,TGI,HOP-92 NSCLC,> 200 µM
same,TGI,SW-620 colon,> 200 µM
same,TGI,MCF7 breast,> 200 µM
same,GI50,RPMI-8226 leukemia,29.2 µM
same,TGI,RPMI-8226 leukemia,123 µM
same,TGI,HOP-62 NSCLC,> 200 µM
same,TGI,TK-10 renal,> 200 µM
same,TGI,DU-145 prostate,> 200 µM
same,TGI,IGROV1 ovarian,> 200 µM
same,TGI,EKVX NSCLC,> 200 µM
same,TGI,MDA-MB-231 breast,> 200 µM
same,TGI,MALME-3M melanoma,> 200 µM
same,TGI,UO-31 renal,98.2 µM
same,GI50,HL-60(TB) leukemia,49.1 µM
same,TGI,HL-60(TB) leukemia,> 179 µM
same,TGI,MDA-MB-435,> 200 µM
same,TGI,MDA-N,> 200 µM
same,TGI,SK-MEL-28 melanoma,> 200 µM
same,TGI,NCI-H522 lung,> 200 µM
same,GI50,HCT-116 colon,70.9 µM
same,TGI,HCT-116 colon,> 200 µM
same,GI50,U251 CNS,92.6 µM
same,TGI,U251 CNS,> 200 µM
same,GI50,PC-3 prostate,86.5 µM
same,TGI,PC-3 prostate,> 200 µM
same,GI50,SF-295 CNS,54.3 µM
same,TGI,SF-295 CNS,> 200 µM
same,TGI,SK-MEL-2 melanoma,> 200 µM
same,TGI,CCRF-CEM leukemia,> 200 µM
same,TGI,HCC-2998 colon,> 200 µM
same,TGI,HS 578T breast,> 200 µM
same,TGI,SF-268 CNS,> 200 µM
same,GI50,OVCAR-4 ovarian,69.1 µM
same,TGI,OVCAR-4 ovarian,> 200 µM
same,TGI,OVCAR-3 ovarian,> 200 µM
same,GI50,RXF 393 renal,96 µM
same,TGI,RXF 393 renal,> 124 µM
same,TGI,M14 melanoma,> 200 µM
same,TGI,KM12 colon,> 200 µM
CNC(=S)/C(C#N)=C(\N)N1CCN(C)CC1,TGI,HT29 colon,> 100 µM
same,TGI,OVCAR-8 ovarian,> 100 µM
same,TGI,A498 renal,> 100 µM
same,TGI,OVCAR-5 ovarian,> 100 µM
same,TGI,NCI/ADR-RES ovarian,> 100 µM
same,TGI,BT-549 breast,> 100 µM
same,TGI,A549 NSCLC,> 100 µM
same,TGI,HCT-15 colon,> 100 µM
same,TGI,NCI-H23 lung,> 100 µM
same,TGI,CAKI-1 renal,> 100 µM
same,TGI,SNB-19 CNS,> 100 µM
same,TGI,SR leukemia,> 100 µM
same,TGI,NCI-H226 lung,> 100 µM
same,TGI,ACHN renal,> 100 µM
same,TGI,SK-OV-3 ovarian,> 100 µM
same,TGI,SN12C renal,> 100 µM
same,TGI,SK-MEL-5 melanoma,> 100 µM
same,TGI,786-0 renal,> 100 µM
same,TGI,COLO 205 colon,> 100 µM
same,TGI,K-562 leukemia,> 100 µM
same,TGI,SNB-75 CNS,> 100 µM
same,TGI,LOX IMVI melanoma,> 100 µM
same,TGI,T-47D breast,> 100 µM
same,TGI,MOLT-4 leukemia,> 100 µM
same,TGI,UACC-62 melanoma,> 100 µM
same,TGI,UACC-257 melanoma,> 100 µM
same,TGI,HOP-92 NSCLC,> 100 µM
same,TGI,SW-620 colon,> 100 µM
same,TGI,MCF7 breast,> 100 µM
same,TGI,RPMI-8226 leukemia,> 100 µM
same,TGI,HOP-62 NSCLC,> 100 µM
same,TGI,TK-10 renal,> 100 µM
same,TGI,DU-145 prostate,> 100 µM
same,TGI,IGROV1 ovarian,> 100 µM
same,TGI,EKVX NSCLC,> 100 µM
same,TGI,SF-539 CNS,> 100 µM
same,TGI,MDA-MB-231 breast,> 100 µM
same,TGI,MALME-3M melanoma,> 100 µM
same,TGI,UO-31 renal,> 100 µM
same,TGI,HL-60(TB) leukemia,> 100 µM
same,TGI,MDA-MB-435,> 100 µM
same,TGI,MDA-N,> 100 µM
same,TGI,NCI-H522 lung,> 100 µM
same,TGI,HCT-116 colon,> 100 µM
same,TGI,U251 CNS,> 100 µM
same,TGI,PC-3 prostate,> 100 µM
same,TGI,SF-295 CNS,> 100 µM
same,TGI,SK-MEL-2 melanoma,> 100 µM
same,TGI,CCRF-CEM leukemia,> 100 µM
same,TGI,HCC-2998 colon,> 100 µM
same,TGI,HS 578T breast,> 100 µM
same,TGI,SF-268 CNS,> 100 µM
same,TGI,OVCAR-3 ovarian,> 100 µM
same,TGI,RXF 393 renal,> 100 µM
same,TGI,M14 melanoma,> 100 µM
same,TGI,KM12 colon,> 100 µM
CCOC(=O)[C@@H]1[C@@H]2NC(=O)N[C@@]1(C)Oc1ccccc12,TGI,HT29 colon,> 100 µM
same,TGI,OVCAR-8 ovarian,> 100 µM
same,TGI,A498 renal,> 100 µM
same,TGI,OVCAR-5 ovarian,> 100 µM
same,TGI,NCI/ADR-RES ovarian,> 100 µM
same,TGI,BT-549 breast,> 100 µM
same,TGI,HCT-15 colon,> 100 µM
same,TGI,NCI-H23 lung,> 100 µM
same,TGI,CAKI-1 renal,> 100 µM
same,TGI,SNB-19 CNS,> 100 µM
same,TGI,SR leukemia,> 100 µM
same,TGI,NCI-H226 lung,> 100 µM
same,TGI,ACHN renal,> 100 µM
same,TGI,SK-OV-3 ovarian,> 100 µM
same,TGI,SN12C renal,> 100 µM
same,TGI,SK-MEL-5 melanoma,> 100 µM
same,TGI,786-0 renal,> 100 µM
same,TGI,COLO 205 colon,> 100 µM
same,TGI,K-562 leukemia,> 100 µM
same,TGI,SNB-75 CNS,> 100 µM
same,TGI,LOX IMVI melanoma,> 100 µM
same,TGI,T-47D breast,> 100 µM
same,TGI,NCI-H460 lung,> 100 µM
same,TGI,MOLT-4 leukemia,> 100 µM
same,TGI,UACC-62 melanoma,> 100 µM
same,TGI,UACC-257 melanoma,> 100 µM
same,TGI,HOP-92 NSCLC,> 100 µM
same,TGI,SW-620 colon,> 100 µM
same,TGI,MCF7 breast,> 100 µM
same,TGI,RPMI-8226 leukemia,> 100 µM
same,TGI,HOP-62 NSCLC,> 100 µM
same,TGI,TK-10 renal,> 100 µM
same,TGI,DU-145 prostate,> 100 µM
same,TGI,IGROV1 ovarian,> 100 µM
same,TGI,EKVX NSCLC,> 100 µM
same,TGI,SF-539 CNS,> 100 µM
same,TGI,MDA-MB-231 breast,> 100 µM
same,TGI,MALME-3M melanoma,> 100 µM
same,TGI,UO-31 renal,> 100 µM
same,TGI,HL-60(TB) leukemia,> 100 µM
same,TGI,MDA-MB-435,> 100 µM
same,TGI,MDA-N,> 100 µM
same,TGI,SK-MEL-28 melanoma,> 100 µM
same,TGI,NCI-H522 lung,> 100 µM
same,TGI,HCT-116 colon,> 100 µM
same,TGI,U251 CNS,> 100 µM
same,TGI,PC-3 prostate,> 100 µM
same,TGI,SF-295 CNS,> 100 µM
same,TGI,SK-MEL-2 melanoma,> 100 µM
same,TGI,CCRF-CEM leukemia,> 100 µM
same,TGI,HCC-2998 colon,> 100 µM
same,TGI,HS 578T breast,> 100 µM
same,TGI,SF-268 CNS,> 100 µM
same,TGI,OVCAR-4 ovarian,> 100 µM
same,TGI,OVCAR-3 ovarian,> 100 µM
same,TGI,RXF 393 renal,> 100 µM
same,TGI,M14 melanoma,> 100 µM
same,TGI,KM12 colon,> 100 µM
